Experimental data as given in patent publication US20110014178A1 (priority 2002, published 2011).

Columns and labels:
[1] = molecular target: phospholipase C (alpha toxin produced by Clostridium perfringens) (Clostridium perfringens, UniProt P0C216); conditions: cited from earlier work
C. perfringens = format: in vivo, broiler chicks; conditions: 50 g/t in feed, challenged
Clostridium perfringens = format: cell-based; conditions: FIC plates

## O=C(O)CN(CCN(CC(=O)O)CC(=O)O)CC(=O)O [EDTA]
[1]
  effect on enzymatic activity of phospholipase C: direct inhibitory effect

## bacitracin methylene disalicylate [BMD]
C. perfringens
  Feed Consum.: 14.000
  Feed Conv.: 1.659
  NE Mort.: 2
  Wt. Gain D 5 to D 14: 0.252 kg
  Wt. Gain D 5 to D 27: 0.946 kg
  Wt. Gain D 14 to D 27: 0.694 kg
C. perfringens; 0 normal, 3 most severe
  Lesion Score (0 to 3) Day 22: 0.0
  Lesion Score (0 to 3) Day 27: 0.3

## lysozyme
[1]
  effect on enzymatic activity of phospholipase C: direct inhibitory effect
Clostridium perfringens; 100 times dilution of overnight culture, no nisin
  lysozyme effective alone: approximately 120 ppm
Clostridium perfringens; in combination with nisin 3 ppm
  lysozyme required to achieve a bactericidal effect: 8 ppm
